According to publication PMC5641551, “Chemical Proteomics for Target Discovery of Head-to-Tail Cyclized Mini-Proteins” (Frontiers in Chemistry, 2017):
No end group written: not given here.

Test system: GST-tagged 14-3-3β
Test: co-precipitation of GST-tagged 14-3-3β with cyclotide probe and competitors
Assay type: binding
Protocol: Splenocytes or Jurkat cells were lysed with 25 mM Tris-HCl pH 7.4, 40 mM KCl, 2.5 mM MgSO4 2.5 mM CaCl2, 2% (v/v) glycerol, 1 mM EDTA under repeated freeze-thaw cycles and 10 min sonification. All experiments were performed in buffer with 1x complete protease inhibitor cocktail (Hoffman-La Roche, Basel, Switzerland). Cell membranes and debris were pelleted for 30 min at 16,000 × g and the supernatant corresponds to the “soluble cell lysate.” Protein concentration was determined using a bicinchoninic acid assay kit (Thermo Scientific) and DTT (1 mM) was added to keep redox potential constant during binding experiments. Photo-affinity pull down samples were submitted to denaturing sodium dodecyl sulfate polyacrylamide gel electrophoresis (PAGE). For immunoblotting according to earlier published protocols (Gruber et al., [2007]; Bergmayr et al., [2013]) proteins were semi-dry transferred onto a nitrocellulose membrane 0.45 μM (Amersham Protran, GE Healthcare, Austria) using a Fast Semi-dry blotter (Bio-Rad) at 0.25 mA per gel for 1 h. Primary rabbit anti-GFP antibody (1:5,000) was from Invitrogen (A6455), rabbit anti-GST antibody (1:2,500) from Abcam (ab9085), and mouse anti-human calcineurin subunit A antibody (1:2,000) clone BE2.1 from eBioscience. Secondary ECL anti-mouse (NA931V) or ECL anti-rabbit (NA934VS) IgG antibodies (1:10,000) were conjugated with horse radish peroxidase (GE Healthcare). Chemo-luminescence signals were detected on an imaging system FluorChem HD2 (Alpha Innotech, CA, United States). For silver staining protein gels were treated immediately after electrophoresis with fixing solution EtOH/ddH2O/acetic acid 50/40/10% (v/v/v) for 20 min. Gels had to be washed acid free, first with 50% (v/v) EtOH for 10 min and with ddH2O for 2 h. Gels were exposed to sensitization buffer 0.025% Na2S2O3 in ddH2O for 3 min, followed by 2 min wash with ddH2O. Gels were silver loaded using a 0.15% AgNO3 solution for 45 min in the dark. The protein bands were stained in development buffer formaldehyde/Na2CO3 0.04/2% (v/w) under rigorous shaking. The reaction was quenched with 5% (v/v) acetic acid solution and the gels were stored until further processing in the stopping buffer at 4°C. Pixel quantification was carried out using ImageJ v1.47 (National Institute for Health).
Biotin-LC-LC-labeled (ThermoFisher) peptides (1–5 nmoles) with or without ([…]) were incubated with Jurkat cell or murine splenocyte cell lysates (150–500 μg proteins) for 2 h at 4°C in the presence of protease inhibitors. UV-activation of photo-crosslinking moiety benzophenone was induced by irradiation at 360 nm on ice for 15 min (Stratalinker, Stratagene, CA, United States). […]

## CGETCVGGTCNTPGCKCSWPVCTRNGLPV (also: bicyclic or more (positions not given here)) [[T20K]kB1, synthetic cyclotide drug candidate, Thr20 to Lys mutant of kalata B1]
Conclusion in words from competition co-precipitation
  binding to 14-3-3 family proteins: can bind to 14-3-3 family proteins
Immunoblot and far Western blot, 2 h at 4°C, competitors 150–500-fold molar excess
  binding of probe [T20K,W23Bpa]kB1 to 14-3-3β in presence of competitor: significantly altered
